Like-named read-outs stand apart in the source and are kept apart here.
How the values were obtained:
[1] = target: Muscarine receptor 2; test: Bonding with cerebral receptors: muscarine receptor 2 (3H quinuclidinyl benzylate, rat brain); format: binding; settings: 0.3 nM 3H quinuclidinyl benzylate, 60 min, 25° C., pH 7.5; read-out: Affinity for muscarine receptor M2 (/3H/Quinuclidinyl benzylate), IC50
Protocol: The preparation is made from the brains of a male rat weighing 150 to 200 g (Iffa Credo).
The brains are pulverized (Teflon-glass) in a 0.32M solution of sucrose. The homogenate is centrifuged for 10 minutes at 1000 g (0°-4° C.).
The supernatant obtained is recovered and centrifuged at 30,000 g for 15 minutes (0°-4° C.).
The deposit is put in suspension in a buffer Tris 50 mM pH 7.5 and the new homogenate is centrifuged again at 30,000 g for 15 minutes (0°-4° C.).
The deposits after elimination of the supernatant, can be used straight-away or kept for up to one month at -30° C.
For one experiment the deposits are first of all thawed out, if necessary, to ambient temperature and put in suspension, using a Dounce, in a buffer Tris 50 mM pH 7.5. Aliquots of 2 ml are incubated for 60 minutes at 25° C. in the presence of 0.3 nM of ^3 H quinuclidinyl benzylate either alone, or with the product under test, or with benzatropine at 10^-5 M in order to determine the non-specific radioactivity fixed.
At the end of the incubation the incubate tubes are cooled to 4° C. and filtered rapidly on Whatman GF/C filters. The filters are rinsed with 3×5 ml of buffer Tris 50 mM pH 7.5, then measurements are made by liquid scintillation [Henry I Yamamura, Solomon H. Snyder, Proc. Nat. Acad. Sc. (1974) 71 No. 5, 1725-1729).

[2] = target: dopamine receptor; test: Affinity for other receptors: dopamine; format: binding; settings: negligible affinity
[3] = target: serotonine 5 HT1 receptor; test: Affinity for other receptors: serotonine 5 HT1; format: binding; settings: negligible affinity
[4] = target: benzodiazepine receptor; test: Affinity for other receptors: benzodiazepines; format: binding; settings: negligible affinity
[5] = target: GABA receptor; test: Affinity for other receptors: GABA; format: binding; settings: negligible affinity
[6] = target: adrenoreceptor alpha 1; test: Affinity for other receptors: adrenoreceptor alpha 1; format: binding; settings: negligible affinity
[7] = target: adrenoreceptor alpha 2; test: Affinity for other receptors: adrenoreceptor alpha 2; format: binding; settings: negligible affinity
[8] = target: adrenoreceptor beta 1 (Homo sapiens, UniProt P08588); test: Affinity for other receptors: adrenoreceptor beta 1; format: binding; settings: negligible affinity
Chain of adrenoreceptor beta 1 (P08588 whole entry): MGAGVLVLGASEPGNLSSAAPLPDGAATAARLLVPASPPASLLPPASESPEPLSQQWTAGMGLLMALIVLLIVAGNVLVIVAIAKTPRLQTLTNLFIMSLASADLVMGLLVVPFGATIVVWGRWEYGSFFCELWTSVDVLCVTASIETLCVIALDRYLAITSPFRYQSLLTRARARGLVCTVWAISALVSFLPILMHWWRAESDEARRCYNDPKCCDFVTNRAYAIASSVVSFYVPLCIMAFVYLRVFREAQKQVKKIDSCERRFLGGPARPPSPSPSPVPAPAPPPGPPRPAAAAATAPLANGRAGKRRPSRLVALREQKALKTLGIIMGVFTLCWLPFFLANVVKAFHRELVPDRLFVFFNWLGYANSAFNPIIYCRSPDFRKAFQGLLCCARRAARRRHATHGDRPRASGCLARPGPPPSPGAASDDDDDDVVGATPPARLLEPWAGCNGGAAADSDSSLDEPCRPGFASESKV

[9] = target: opiated receptor mu (Homo sapiens, UniProt P35372); test: Affinity for other receptors: opiated receptor mu; format: binding; settings: negligible affinity
Chain of opiated receptor mu (P35372 whole entry): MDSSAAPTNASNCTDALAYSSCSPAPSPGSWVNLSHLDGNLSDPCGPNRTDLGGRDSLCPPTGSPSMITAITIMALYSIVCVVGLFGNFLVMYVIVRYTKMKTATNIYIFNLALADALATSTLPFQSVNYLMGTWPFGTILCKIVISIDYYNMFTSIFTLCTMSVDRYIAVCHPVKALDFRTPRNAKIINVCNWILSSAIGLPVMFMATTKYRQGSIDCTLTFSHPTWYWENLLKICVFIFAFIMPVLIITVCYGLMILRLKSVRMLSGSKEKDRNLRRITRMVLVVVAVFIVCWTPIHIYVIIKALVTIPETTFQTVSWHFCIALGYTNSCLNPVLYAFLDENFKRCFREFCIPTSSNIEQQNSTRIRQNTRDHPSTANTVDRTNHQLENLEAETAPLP

[10] = target: opiated receptor kappa (Homo sapiens, UniProt P41145); test: Affinity for other receptors: opiated receptor kappa; format: binding; settings: negligible affinity
Chain of opiated receptor kappa (P41145 whole entry): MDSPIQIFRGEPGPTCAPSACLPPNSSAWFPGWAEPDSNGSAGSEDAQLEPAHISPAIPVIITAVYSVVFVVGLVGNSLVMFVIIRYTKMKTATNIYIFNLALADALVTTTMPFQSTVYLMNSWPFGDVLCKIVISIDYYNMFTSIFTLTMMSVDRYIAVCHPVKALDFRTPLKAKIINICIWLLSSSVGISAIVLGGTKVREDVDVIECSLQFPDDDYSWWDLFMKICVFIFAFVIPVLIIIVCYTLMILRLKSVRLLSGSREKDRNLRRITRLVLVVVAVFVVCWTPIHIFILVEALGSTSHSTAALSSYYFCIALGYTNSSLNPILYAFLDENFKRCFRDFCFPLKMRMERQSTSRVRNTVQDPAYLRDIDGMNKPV

[11] = test system: contractions induced by acetylcholine, isolated ileum; test: Antagonism of acetylcholine-induced contractions, isolated guinea-pig ileum; settings: acetylcholine 1×10^-6 M; contact time one minute; read-out: Antagonism with various agents (IC50): Ach.
Protocol: (§1) The interaction of the compounds with various receptors was evaluated on the isolated ileum of a guinea-pig according to the following method.
(§2) Segments of the ileum of guinea-pigs of 2.5-3 cm were washed and immediately suspended in a bath containing 10 ml of Tyrode's solution at 37° C. and aerated with a mixture of oxygen (95%) and carbon dioxide (5%). After a stabilization period of at least 30 minutes contractions were recorded, while the preparation was maintained under constant tension of 1 g, by means of a detector connected to a polygraph. The agonistic action was evaluated by leaving the compound in contact with the isolated tissue for a period necessary to show the maximum […]; then it was washed with the Tyrode's solution. The following dose was added only after the preparation had returned to its base line. Arecoline was used as a reference product. The antagonist action was evaluated on the contractions induced by acetylcholine (1×10^-6 M), histamine (1×10^-5 M), serotonine (1×10^-6 M) and barium chloride (2×10^-4 M). […] The contact time before adding the agonist was one minute.
(§3) For each compound the does response curves are obtained with 4 to 6 different concentrations and 3 to 5 independent tests. The agonist activity is expressed by pD2 (negative logarithm of the dose which produces 50% of the maximum effect).

[12] = test system: contractions induced by serotonine, isolated ileum; test: Antagonism of serotonine-induced contractions, isolated guinea-pig ileum; settings: serotonine 1×10^-6 M; contact time one minute; read-out: Antagonism with various agents (IC50): Seroton.
Protocol: as §1, §2, §3

[13] = test system: contractions induced by barium chloride, isolated ileum; test: Antagonism of barium chloride-induced contractions, isolated guinea-pig ileum; settings: barium chloride 2×10^-4 M; contact time one minute; read-out: Antagonism with various agents (IC50): BaCL2
Protocol: as §1, §2, §3

[14] = test system: isolated ileum; test: Agonist action on isolated guinea-pig ileum; settings: negative logarithm of the dose producing 50% of maximum effect
Protocol: as §1, §2, §3

[15] = test system: cholinomimetic effects induced by carbachol; test: In vivo anticholinergic action: inhibition of carbachol-induced cholinomimetic effects; set-up: species or system CD1 male mice; settings: i.p.; for ED50 / ED (1 degree C): Mus musculus, ip, 0.5 h, carbachol 1 mg/kg s.c. 30 min later; for ED (1 degree C): rectal temperature, read-out: Body Temperature: dose able to increase by 1° C. the hypothermic effect induced by carbachol; for selective anticholinergic action in vivo: mice, in words
Protocol: The anticholinergic activity of the compounds was determined by evaluating the capacity to inhibit cholinomimetic effects induced by carbachol. Atropine sulphate was used as reference product.
CD1 male mice are used weighing 25 to 30 g. They are divided into groups of 5 animals and treated by intraperitoneal route, in scaled doses, with the products or with 0.25% of Methocel for the controls. 10 animals are used for each dose. 30 minutes after the administration of the compounds, the mice are subcutaneously injected with 1 mg/kg of carbachol, dissolved in physiological serum.
Each animal was examined 30 minutes after the injection of carbachol to evaluate the presence of diarrhea, salivation and watering of the eyes; the body temperature was also measured using a thermocouple inserted 1.5 cm into the rectum.
For each compound, there was determined, and recorded in the following table, the dose able to inhibit, in 50% of the animals, the appearance of peripheral cholinomimetic symptoms induced by carbachol, and to increase by 1° C. the hypothermic effect induced by the cholinergic agent.

[16] = read-out: dose able to inhibit, in 50% of the animals, Diarrhea
[17] = read-out: dose able to inhibit, in 50% of the animals, Salivation
[18] = read-out: dose able to inhibit, in 50% of the animals, Watering of Eyes

Row | Compound | IC50 [1] | IC50 [2] | IC50 [3] | IC50 [4] | IC50 [5] | IC50 [6] | IC50 [7] | IC50 [8] | IC50 [9] | IC50 [10] | IC50 [11] | IC50 [12] | IC50 [13] | Agonist Action (pD2) [14] | ED50 [15, 16] | ED50 [15, 17] | ED50 [15, 18] | ED (1 degree C) [15] | selective anticholinergic action in vivo [15]
1 | CC(C)(C)c1ccc(S(=O)(=O)N2CCCC2=O)cc1 [Example 1, 1-(4-tert-butylbenzenesulphonyl)-2-pyrrolidinone] | 1.3 µM | 5 to 10 µM | 5 to 10 µM | 5 to 10 µM | 5 to 10 µM | 5 to 10 µM | 5 to 10 µM | 5 to 10 µM | 5 to 10 µM | 5 to 10 µM | 0.064 µM | > 100 µM | 16 µM | < 4 | 7 mg/kg | 10 mg/kg | > 50 mg/kg | 50 mg/kg | selective anticholinergic action on the intestinal musculature
2 | CCN(CC)c1ccc(S(=O)(=O)N2CCCC2=O)cc1 [Example 2, 1-[4-(diethylamino)benzenesulphonyl]-2-pyrrolidinone] | 1.3 µM | 5 to 10 µM | 5 to 10 µM | 5 to 10 µM | 5 to 10 µM | 5 to 10 µM | 5 to 10 µM | 5 to 10 µM | 5 to 10 µM | 5 to 10 µM | 0.062 µM | > 100 µM | 6 µM | < 4 | 7 mg/kg | > 50 mg/kg | > 50 mg/kg | > 50 mg/kg | selective anticholinergic action on the intestinal musculature
